According to US5602106A, “16-membered macrolide derivatives” (priority 1993, dated 1997):
Values after ≈ are worked out from the molar mass of the structure shown. Read-outs that look alike come from different tables or passages of the source.

Legend:
Streptococcus pneumoniae = experiment: Antimicrobial activity in vitro; assay type: cell-based; conditions: compared with MDM and LM-A7
Procedure: (§1) The effect of the first aspect of the present invention resides in the creation of a novel and useful 16-membered macrolide derivative. Antimicrobial activities of the compounds of the present invention were determined by measuring minimum inhibitory concentration (MIC). Minimum inhibitory concentration was determined by the agar plate dilution method in the following manner.
(§2) Test strains were subjected to seed culture using Sensitivity test broth (STB, Nissui Pharmaceutical) except that the strains belonging to the genus Streptococcus, Branhamella and Haemophilus were cultured on blood agar plate. A 5 μl portion of cell suspension of the test strains having about 10^6 CFU/ml was inoculated into Sensitivity disk agar (SDA, Nissui Pharmaceutical) supplemented with 5% horse blood and incubated at 37° C. for 20 hours. Then, MIC was measured. […] Antimicrobial activities in vitro of the compounds (1) and (2) are shown in Table 1, and those of the compounds (3) and (4) in Table 3.

S. aureus M133 = experiment: MIC, agar plate dilution method; assay type: cell-based; conditions: for MIC: Staphylococcus aureus, M133, 20 h, read-out: Antimicrobial activity (MIC), 37° C., 20 hours, SDA with 5% horse blood
Procedure: as §1, §2

S. aureus MS15026 = experiment: MIC, agar plate dilution method; assay type: cell-based; conditions: Staphylococcus aureus, 37° C., 20 hours, SDA with 5% horse blood, read-out: Antimicrobial activity (MIC)
Procedure: as §1, §2

E. faecalis W-73 = experiment: MIC, agar plate dilution method; assay type: cell-based; conditions: Enterococcus faecalis, W73, 20 h, read-out: Antimicrobial activity (MIC)
Procedure: as §1, §2

S. aureus M126 = experiment: MIC, agar plate dilution method; assay type: cell-based; conditions: Staphylococcus aureus, 37° C., 20 hours, SDA with 5% horse blood, read-out: Antimicrobial activity (MIC)
Procedure: as §1, §2

S. epidermidis ATCC14990 = experiment: MIC, agar plate dilution method; assay type: cell-based; conditions: Staphylococcus epidermidis, ATCC14990, 20 h, read-out: Antimicrobial activity (MIC), 37° C., 20 hours, SDA with 5% horse blood
Procedure: as §1, §2

B. catarrhalis W-0506 = experiment: MIC, agar plate dilution method; assay type: cell-based; conditions: Moraxella catarrhalis, W0506, 20 h, read-out: Antimicrobial activity (MIC), 37° C., 20 hours, SDA with 5% horse blood
Procedure: as §1, §2

S. aureus MS15009/pMS99 = experiment: MIC, agar plate dilution method; assay type: cell-based; conditions: Staphylococcus aureus, MS15009/PMS99, 20 h, read-out: Antimicrobial activity (MIC)
Procedure: as §1, §2

H. influenzae Type b = experiment: MIC, agar plate dilution method; assay type: cell-based; conditions: for MIC: Haemophilus influenzae, 20 h, read-out: Antimicrobial activity (MIC), 37° C., 20 hours, SDA with 5% horse blood
Procedure: as §1, §2

M. luteus ATCC9341 = experiment: MIC, agar plate dilution method; assay type: cell-based; conditions: Micrococcus luteus, ATCC9341; 37° C., 20 hours, SDA with 5% horse blood; read-out: Antimicrobial activity (MIC)
Procedure: as §1, §2

S. aureus 209P JC-1 = experiment: MIC, agar plate dilution method; assay type: cell-based; conditions: for MIC: Staphylococcus aureus, 209P, 20 h, read-out: Antimicrobial activity (MIC), 37° C., 20 hours, SDA with 5% horse blood
Procedure: as §1, §2

S. pneumoniae Type 1 = experiment: MIC, agar plate dilution method; assay type: cell-based; conditions: for MIC: Streptococcus pneumoniae, TYPE1, 20 h, read-out: Antimicrobial activity (MIC), 37° C., 20 hours, SDA with 5% horse blood
Procedure: as §1, §2

S. aureus MS15009/pMS98 = experiment: MIC, agar plate dilution method; assay type: cell-based; conditions: for MIC: Staphylococcus aureus, MS15009/PMS98, 20 h, read-out: Antimicrobial activity (MIC), 37° C., 20 hours, SDA with 5% horse blood
Procedure: as §1, §2

K. pneumoniae PCI602 = experiment: MIC, agar plate dilution method; assay type: cell-based; conditions: Klebsiella pneumoniae, PCI602, 20 h, 37° C., SDA with 5% horse blood, read-out: Antimicrobial activity (MIC)
Procedure: as §1, §2

S. pneumoniae IP692 = experiment: MIC, agar plate dilution method; assay type: cell-based; conditions: for MIC: Streptococcus pneumoniae, IP692, 20 h, read-out: Antimicrobial activity (MIC), 37° C., 20 hours, SDA with 5% horse blood
Procedure: as §1, §2

S. aureus MS15027 = experiment: MIC, agar plate dilution method; assay type: cell-based; conditions: Staphylococcus aureus, MS15027, 20 h, read-out: Antimicrobial activity (MIC), 37° C., 20 hours, SDA with 5% horse blood
Procedure: as §1, §2

B. catarrhalis W-0500 = experiment: MIC, agar plate dilution method; assay type: cell-based; conditions: Moraxella catarrhalis, W0500, 20 h, read-out: Antimicrobial activity (MIC), 37° C., 20 hours, SDA with 5% horse blood
Procedure: as §1, §2

[1] = tested on: clinically important Gram-positive bacteria; experiment: Antimicrobial activity / growth inhibition; assay type: cell-based
Procedure: as §1, §2

test strains = experiment: Antimicrobial activity in vitro, test strains overall; assay type: cell-based; conditions: against most of test strains
Procedure: as §1, §2

E. coli NIHJ JC-2 = experiment: MIC, agar plate dilution method; assay type: cell-based; conditions: Escherichia coli, NIHJJC2, 20 h, 37° C., SDA with 5% horse blood, read-out: Antimicrobial activity (MIC)
Procedure: as §1, §2

S. pyogenes Cook = experiment: MIC, agar plate dilution method; assay type: cell-based; conditions: Streptococcus pyogenes
Procedure: as §1, §2

H. influenzae 9334 = experiment: MIC, agar plate dilution method; assay type: cell-based
Procedure: as §1, §2

B. catarrhalis W-0400 = experiment: MIC, agar plate dilution method; assay type: cell-based; conditions: Moraxella catarrhalis, W0400, 20 h, read-out: Antimicrobial activity (MIC)
Procedure: as §1, §2

[2] = literature; cited from earlier work
[3] = 37° C., 20 hours, SDA with 5% horse blood

For `CCC(=O)O[C@@H]1CC(=O)O[C@H](C)C/C=C/C=C/[C@H](O)[C@H](C)C[C@H](CC=O)[C@H](O[C@@H]2O[C@H](C)[C@@H](O[C@H]3C[C@@](C)(OC)[C@@H](OC(=O)CC)[C@H](C)O3)[C@H](N(C)C)[C@H]2O)[C@H]1OC` [(1), 3"-O-methylmidecamycin A1], the “antimicrobial activity against Streptococcus pneumoniae” value (Streptococcus pneumoniae) was “considerably improved antimicrobial activity”, the MIC (S. aureus M133) was 0.39 µg/mL (≈ 0.471 µM) and the MIC (S. aureus MS15026) was > 100 µg/mL. For the same compound, the MIC (E. faecalis W-73; [3]) was 1.56 µg/mL (≈ 1.88 µM), the MIC (S. aureus M126) was > 100 µg/mL and the MIC (S. epidermidis ATCC14990) was 0.78 µg/mL (≈ 0.942 µM). For the same compound, the MIC (B. catarrhalis W-0506) was 0.78 µg/mL (≈ 0.942 µM), the MIC (S. aureus MS15009/pMS99) was > 100 µg/mL and the MIC (H. influenzae Type b) was 12.5 µg/mL (≈ 15.1 µM). For the same compound, the MIC (M. luteus ATCC9341) was 0.05 µg/mL (≈ 0.0604 µM), the MIC (S. aureus 209P JC-1) was 0.2 µg/mL (≈ 0.242 µM) and the MIC (S. pneumoniae Type 1) was 0.1 µg/mL (≈ 0.121 µM). For the same compound, the MIC (S. aureus MS15009/pMS98) was 0.2 µg/mL (≈ 0.242 µM), the MIC (K. pneumoniae PCI602) was > 100 µg/mL and the MIC (S. pneumoniae IP692) was 0.1 µg/mL (≈ 0.121 µM). For the same compound, the MIC (S. aureus MS15027) was 0.39 µg/mL (≈ 0.471 µM), the MIC (B. catarrhalis W-0500) was 0.78 µg/mL (≈ 0.942 µM) and the “antimicrobial activities (in words)” value [1] was “strong antimicrobial activities”. The “antimicrobial activities in vitro compared with corresponding compounds having free 3"-hydroxyl (MDM, LM-A7)” value (test strains) was “twice as high”.

For `CCCC(=O)O[C@H]1[C@H](C)O[C@@H](O[C@H]2[C@H](N(C)C)[C@@H](O)[C@H](O[C@H]3[C@@H](CC=O)C[C@@H](C)[C@@H](O)/C=C/C=C/C[C@@H](C)OC(=O)C[C@@H](O)[C@@H]3OC)O[C@@H]2C)C[C@@]1(C)OC(=O)CC` [RKM, rokitamycin, reference compound], the “Antimicrobial activity (MIC)” value (S. aureus M133; [3]) was 0.78 µg/mL, the MIC (S. aureus M133) was 0.39 µg/mL (≈ 0.471 µM) and the MIC (S. aureus MS15026) was > 100 µg/mL. For the same compound, the MIC (E. faecalis W-73; [3]) was 1.56 µg/mL (≈ 1.88 µM), the MIC (E. faecalis W-73) was 0.39 µg/mL (≈ 0.471 µM) and the MIC (E. coli NIHJ JC-2) was > 100 µg/mL. The MIC (S. aureus M126) was > 100 µg/mL, the MIC (S. epidermidis ATCC14990) was 0.78 µg/mL (≈ 0.942 µM) and the MIC (S. aureus MS15009/pMS99) was > 100 µg/mL. It also gave an MIC (S. pyogenes Cook; 20 h, read-out: Antimicrobial activity (MIC), 37° C., 20 hours, SDA with 5% horse blood) of 0.2 µg/mL (≈ 0.242 µM), an MIC (S. pyogenes Cook; 37° C., 20 hours, SDA with 5% horse blood, read-out: Antimicrobial activity (MIC)) of 0.05 µg/mL (≈ 0.0604 µM) and an MIC (H. influenzae 9334; Haemophilus influenzae, 9334, 20 h, read-out: Antimicrobial activity (MIC), 37° C., 20 hours, SDA with 5% horse blood) of 6.25 µg/mL (≈ 7.55 µM). The MIC (H. influenzae 9334; Haemophilus influenzae, 9334, 37° C., 20 hours, SDA with 5% horse blood, read-out: Antimicrobial activity (MIC)) was 1.56 µg/mL (≈ 1.88 µM), the “Antimicrobial activity (MIC)” value (H. influenzae Type b; [3]) was 12.5 µg/mL and the MIC (H. influenzae Type b) was 6.25 µg/mL (≈ 7.55 µM). The MIC (M. luteus ATCC9341) was 0.05 µg/mL (≈ 0.0604 µM), the MIC (B. catarrhalis W-0400) was 0.39 µg/mL (≈ 0.471 µM) and the “Antimicrobial activity (MIC)” value (S. aureus 209P JC-1; [3]) was 0.20 µg/mL. The MIC (S. aureus 209P JC-1) was 0.1 µg/mL (≈ 0.121 µM), the “Antimicrobial activity (MIC)” value (S. pneumoniae Type 1; [3]) was 0.20 µg/mL and the MIC (S. pneumoniae Type 1) was 0.1 µg/mL (≈ 0.121 µM). For the same compound, the “Antimicrobial activity (MIC)” value (S. aureus MS15009/pMS98; [3]) was 0.78 µg/mL, the MIC (S. aureus MS15009/pMS98) was 0.39 µg/mL (≈ 0.471 µM) and the MIC (K. pneumoniae PCI602) was > 100 µg/mL. For the same compound, the “Antimicrobial activity (MIC)” value (S. pneumoniae IP692; [3]) was 0.20 µg/mL, the MIC (S. pneumoniae IP692) was 0.1 µg/mL (≈ 0.121 µM) and the MIC (S. aureus MS15027) was 0.78 µg/mL (≈ 0.942 µM). For the same compound, the “metabolism and loss of antimicrobial activity after oral administration” value [2] was “an acyl group of a neutral sugar moiety of the administered drug is cleaved with time and antimicrobial activities of the drug itself therefore is reduced gradually”.
